In US7109150B2, “Trifluoromethylpyrrolecarboxamides and trifluoromethylpyrrolethioamides as fungicides” (Syngenta Crop Protection, Inc., priority 1999, dated 2006) one finds melting point data, which are given here for 1 compound.

With `Cn1cc(C(=O)Nc2ccccc2-c2ccc(Cl)s2)c(C(F)(F)F)c1` [Example 3, 1-Methyl-4-trifluoromethyl-1H-pyrrole-3-carboxylic acid [2′-(5′-chloro-thienyl)-2-benzamide]], the melting point (usually the temperature of the solid-liquid transition) was in the range of 139 to 141 °C.
